Measured values as given in patent US20130317134A1, “TISSUE ADHESIVE BASED ON TRIFUNCTIONAL ASPARTATES” (Bayer Intellectual Property GmbH Creative Campus Monheim, priority 2011, published 2013).

Test system: L929 cells
Assay: Cytotoxicity of the cured adhesive in accordance with ISO 10993-5:2009
Assay type: cell-based
Conditions: adhesive of Prepolymer C cured with equivalent amount of curing agent
Experimental: Prepolymer C was reacted with an equivalent amount of 3. The cytotoxicity was measured in accordance with ISO 10993-5:2009 using L929 cells.
4 g of prepolymer C were stirred thoroughly in a beaker with an equivalent amount of (5) and cured. The adhesive was measured in accordance with ISO 10993-5:2009 using L929 cells.

Row | SMILES | cytotoxicity category | cell viability
1 | CCOC(=O)CC(NCCCCC(CCCNC(CC(=O)OCC)C(=O)OCC)CNC(CC(=O)OCC)C(=O)OCC)C(=O)OCC (stereo not drawn) [Compound 5, Diethyl 2-[(8-[(1,4-diethoxy-1,4-dioxobutan-2-yl)amino]-4-{[(1,4-diethoxy-1,4-dioxobutan-2-yl)-amino]methyl}octyl)amino]butanedioate, reference compound] | high cyctotoxicity | 
2 | CCOC(=O)CC(NCCCC(CCCNC(CC(=O)OCC)C(=O)OCC)CCCNC(CC(=O)OCC)C(=O)OCC)C(=O)OCC (stereo not drawn) [Compound 3, Tetraethyl 2,2′-(4-(3-(1,4-diethoxy-1,4-dioxobutan-2-ylamino)propyl)heptane-1,7-diyl)bis-(azandiyl)disuccinate] | not to be categorised as cytotoxic | no reduction in cell viability
